In patent US20230144211A1, “ANTIFOLATE LINKER-DRUGS AND ANTIBODY-DRUG CONJUGATES” (Byondis B.V., priority 2020, published 2023):

Tests used:
SK-BR-3 cells = assay: In vitro cell viability assay (CellTiter-Glo, 6 days); format: cell-based, human; conditions: Homo sapiens
Procedure: (§1) FaDu, BxPC-3, HeLa, MV4-11, and RAJI cell lines were obtained from Deutsche Sammlung von Mikroorganismen und Zellkulturen (Leipzig, Germany). Jurkat NucLight Red cells were obtained from Essen BioScience Inc. (Ann Arbor, Mich., USA). SK-BR-3 and SK-OV-3 cells were cultured in McCoys 5A medium (Lonza; Walkersville, Md., USA) supplemented with 10% v/w Fetal Bovine Serum (FBS), Heat-inactivated (HI) (Gibco-Life Technologies; Carlsbad, Calif.) and 80 U/mL Pen/Strep (Gibco-Life Technologies), at 37° C. in a humidified incubator under 5% CO2 atmosphere. SW-620 cells were similarly maintained in RPMI 1640 medium (Lonza), containing 10% v/w FBS HI and 80 U/mL Pen/Strep. A-549 cells were similarly maintained in F-12K Nutrient Mixture (1×) (Gibco-Life Technologies) media supplemented with 80 U/mL Pen/Strep and 5% v/w FBS, which was Qualified (Q) (Gibco-Life Technologies). BT-474 and AU-565 cells were similarly maintained in RPMI 1640 medium (Lonza), containing 10% v/w FBS, which was Qualified (Q) (Gibco-Life Technologies), and 80 U/mL Pen/Strep. […] Jurkat NucLight Red cells were similarly maintained in RPMI 1640 medium (Lonza), containing 10% v/w FBS HI, 80 U/mL Pen/Strep and 0.5 μg/mL Puromycin (Gibco-Life Technologies). FaDu cells were cultured in EMEM medium (Lonza) supplemented with 10% v/w FBS HI (Gibco-Life Technologies), 1× GlutaMAX (Gibco-Life Technologies), and 80 U/mL Pen/Strep (Gibco-Life Technologies), at 37° C. in a humidified incubator under 5% CO2 atmosphere.
(§2) After an overnight incubation, 10 serial log 10 dilutions of the free drugs were made in DMSO (Sigma-Aldrich). These free drug dose-response curves were 10-times further diluted in complete growth medium. For the ADCs according to the invention 10 serial log 10 dilutions were made in complete growth medium. 10 μL of a composition comprising a free drug or an ADC according to the invention was added to the assay plate (final DMSO content for free drugs was 1%). […] […] Percentage cell survival was calculated by dividing the measured luminescence for each free drug or ADC according to the concentration with the average mean of untreated cells (1% or 0.1% DMSO control (for free drugs) or 100% complete growth medium (for ADCs)) multiplied by 100.
(§3) Curves were fitted by non-linear regression using the sigmoidal dose-response equation with variable slope (four parameters) using curve-fitting software (GraphPad Prism, version 9.4.0 for Windows, GraphPad, San Diego, Calif. or Electronic Laboratory Notebook (ELN) add-in BioAssay, version 19.1.0.0218, Perkin Elmer, Waltham, Mass.). Relative IC50 values were calculated as the concentration that gives a response halfway between bottom and top of the curve, when using a 4-parameter logistic fit. Data were reported as mean IC50 value of at least one experiment performed in duplicate.

BxPC-3 cells = assay: as above; format: cell-based; conditions: Homo sapiens, free antifolate drugs, Table 1d
Procedure: as §1, §2, §3

FaDu cells = assay: as above; format: cell-based; conditions: Homo sapiens, free antifolate drugs, Table 1d
Procedure: as §1, §2, §3

[1] = system: Jurkat NucLight Red cells; assay: as above; format: cell-based, human; conditions: Homo sapiens, Jurkat, free antifolate drugs
Procedure: as §1
(§4) After an overnight incubation, 10 serial log 10 dilutions of the free drugs were made in DMSO (Sigma-Aldrich). These free drug dose-response curves were 10-times further diluted in complete growth medium. For the ADCs according to the invention 10 serial log 10 dilutions were made in complete growth medium. 10 μL of a composition comprising a free drug or an ADC according to the invention was added to the assay plate (final DMSO content for free drugs was 1%). […] Cell viability was assessed after 6 days using a luminescent assay kit (CellTiter-Glo™ (CTG), Promega Corporation) according to the manufacturer's instructions. Percentage cell survival was calculated by dividing the measured luminescence for each free drug or ADC according to the concentration with the average mean of untreated cells (1% or 0.1% DMSO control (for free drugs) or 100% complete growth medium (for ADCs)) multiplied by 100.
as §3

A-549 cells = assay: as above; format: cell-based; conditions: Homo sapiens, A549; free antifolate drugs, Table 1a; $ steep hillslope
Procedure: (§5) Human tumor cell lines SK-BR-3, SW-620, A-549, BT-474, Jurkat Clone E6-1, AU-565, and SK-OV-3 were obtained from American Type Culture Collection (Rockville, Md., USA). FaDu, BxPC-3, HeLa, MV4-11, and RAJI cell lines were obtained from Deutsche Sammlung von Mikroorganismen und Zellkulturen (Leipzig, Germany). Jurkat NucLight Red cells were obtained from Essen BioScience Inc. (Ann Arbor, Mich., USA). SK-BR-3 and SK-OV-3 cells were cultured in McCoys 5A medium (Lonza; Walkersville, Md., USA) supplemented with 10% v/w Fetal Bovine Serum (FBS), Heat-inactivated (HI) (Gibco-Life Technologies; Carlsbad, Calif.) and 80 U/mL Pen/Strep (Gibco-Life Technologies), at 37° C. in a humidified incubator under 5% CO2 atmosphere. SW-620 cells were similarly maintained in RPMI 1640 medium (Lonza), containing 10% v/w FBS HI and 80 U/mL Pen/Strep. A-549 cells were similarly maintained in F-12K Nutrient Mixture (1×) (Gibco-Life Technologies) media supplemented with 80 U/mL Pen/Strep and 5% v/w FBS, which was Qualified (Q) (Gibco-Life Technologies). BT-474 and AU-565 cells were similarly maintained in RPMI 1640 medium (Lonza), containing 10% v/w FBS, which was Qualified (Q) (Gibco-Life Technologies), and 80 U/mL Pen/Strep. Jurkat Clone E6-1, BxPC-3, HeLa, MV4-11, and RAJI cells were similarly maintained in RPMI 1640 medium (Lonza), containing 10% v/w FBS HI and 80 U/mL Pen/Strep. Jurkat NucLight Red cells were similarly maintained in RPMI 1640 medium (Lonza), containing 10% v/w FBS HI, 80 U/mL Pen/Strep and 0.5 μg/mL Puromycin (Gibco-Life Technologies). FaDu cells were cultured in EMEM medium (Lonza) supplemented with 10% v/w FBS HI (Gibco-Life Technologies), 1× GlutaMAX (Gibco-Life Technologies), and 80 U/mL Pen/Strep (Gibco-Life Technologies), at 37° C. in a humidified incubator under 5% CO2 atmosphere.
as §4, with “Cells in complete growth medium were plated in 96-well plates (90 μL/well) and incubated at 37° C., 5% CO2 at the following cell densities: 6500 SK-BR-3, 4000 SW-620, 2500 A-549, 10000 BT-474, 3000 Jurkat Clone E6-1, 5000 AU-565, 1250 FaDu, 1250 BxPC-3, 1000 HeLa, 7500 MV4-11, 1000 RAJI, 3000 Jurkat NucLight Red, and 4000 SK-OV-3 cells per well. After” for “After”
as §3

BT-474 cells = assay: as above; format: cell-based; conditions: Homo sapiens, free antifolate drugs, Table 1a, # no full dose-response curve
Procedure: as §1, §2, §3

Human tumor cell lines = assay: In vitro cell viability assays, free antifolate drugs, overall comparison; format: cell-based; conditions: compared with talotrexin or parent compound
Procedure: as §5
as §4, with “Cells in complete growth medium were plated in 96-well plates (90 μL/well) and incubated at 37° C., 5% CO2 at the following cell densities: 6500 SK-BR-3, 4000 SW-620, 2500 A-549, 10000 BT-474, 3000 Jurkat Clone E6-1, 5000 AU-565, 1250 FaDu, 1250 BxPC-3, 1000 HeLa, 7500 MV4-11, 1000 RAJI, 3000 Jurkat NucLight Red, and 4000 SK-OV-3 cells per well. After” for “After”
as §3

SW-620 cells = assay: In vitro cell viability assay (CellTiter-Glo, 6 days); format: cell-based; conditions: Homo sapiens, free antifolate drugs, Table 1a
Procedure: as §1, §4, §3

AU-565 cells = assay: as above; format: cell-based, human; conditions: Homo sapiens, AU565, free antifolate drugs, Table 1b
Procedure: as §1, §2, §3

SK-OV-3 cells = assay: as above; format: cell-based; conditions: Homo sapiens, free antifolate drugs, Table 1a
Procedure: as §1, §4, §3

[2] = SK-BR-3, free antifolate drugs, Table 1a

| SMILES | IC50 (SK-BR-3 cells; [2]) [nM] | IC50 (A-549 cells) [nM] | IC50 (BT-474 cells) [nM] | antifolate activity, comparison in words (Human tumor cell lines) | IC50 (SW-620 cells) [nM] | further results |
| --- | --- | --- | --- | --- | --- | --- |
| Nc1ccc(C(=O)NCCC[C@H](NC(=O)c2ccc(CCc3ccc4nc(N)nc(N)c4c3F)cc2)C(=O)O)c(-c2nnn[nH]2)c1 [XG2, (S)-5-(4-Amino-2-(1H-tetrazol-5-yl)benzamido)-2-(4-(2-(2,4-diamino-5-fluoroquinazolin-6-yl)ethyl)benzamido)pentanoic acid] |  |  |  |  |  | IC50 (SK-BR-3 cells; SK-BR-3, 24 h, free antifolate drugs, Table 1d): 0.9 nM; IC50 (BxPC-3 cells): 0.92 nM; IC50 (FaDu cells): 0.31 nM; IC50 ([1]; 24 h, Table 1d): 0.87 nM |
| Nc1ccc(C(=O)NCCC[C@H](NC(=O)c2ccc(CCc3ccc4nc(N)nc(N)c4c3)cc2)C(=O)O)cc1 [XJ4, (S)-5-(4-Aminobenzamido)-2-(4-(2-(2,4-diaminoquinazolin-6-yl)ethyl)benzamido)pentanoic acid] | 3.4 | ~10 | 8.1 | less active than talotrexin |  |  |
| Nc1ccc(C(=O)NCCC[C@H](NC(=O)c2ccc(NCc3cnc4nc(N)nc(N)c4n3)cc2)C(=O)O)cc1 [XT35, (S)-5-(4-Aminobenzamido)-2-(4-(((2,4-diaminopteridin-6-yl)methyl)amino)benzamido) pentanoic acid] | 3.1 | 16 |  | less active than talotrexin | 2.5 |  |
| [N-]=[N+]=Nc1ccc(C(=O)NCCC[C@H](NC(=O)c2ccc(CCc3cnc4nc(N)nc(N)c4n3)cc2)C(=O)O)cc1 [XX5, (S)-5-(4-Azidobenzamido)-2-(4-(2-(2,4-diaminopteridin-6-yl)ethyl)benzamido) pentanoic acid] | 16 | 76 |  | less active than talotrexin | 7.2 |  |
| Nc1ccc(C(=O)NCCC[C@H](NC(=O)c2ccc(CCc3cnc4nc(N)nc(N)c4n3)cc2)C(=O)O)cc1 [XX7, (S)-5-(4-Aminobenzamido)-2-(4-(2-(2,4-diaminopteridin-6-yl)ethyl)benzamido) pentanoic acid] | 6.5 | 29 |  | less active than talotrexin | 2.8 |  |
| CN(Cc1cnc2nc(N)nc(N)c2n1)c1ccc(C(=O)N[C@@H](CCCNC(=O)c2ccc(N)cc2)C(=O)O)cc1 [XX12, (S)-5-(4-aminobenzamido)-2-(4-(((2,4-diaminopteridin-6-yl)methyl)(methyl)amino)benzamido) pentanoic acid] | 17 | 42 |  | less active than talotrexin | 7.5 |  |
| Nc1ccc(C(=O)NCCC[C@H](NC(=O)c2ccc(NCc3cnc4nc(N)nc(N)c4n3)cc2)C(=O)O)c(-c2nn[nH]n2)c1 [XX35, (S)-5-(4-Amino-2-(2H-tetrazol-5-yl)benzamido)-2-(4-(((2,4-diaminopteridin-6-yl)methyl)amino)benzamido)pentanoic acid] | 1.3 | ~2.5 | 4.3 |  |  | IC50 (AU-565 cells): 0.62 nM; IC50 (SK-BR-3 cells; SK-BR-3, free antifolate drugs, Table 1b, # no full dose-response curve): 1.03 nM; IC50 ([1]; Table 1b): 1.4 nM |
| Nc1ccc(C(=O)NCCC[C@H](NC(=O)c2ccc(NCc3cnc4nc(N)nc(N)c4n3)cc2)C(=O)O)c(S(=O)(=O)O)c1 [XX37, (S)-5-(4-Amino-2-sulfobenzamido)-2-(4-(((2,4-diaminopteridin-6-yl)methyl)amino)benzamido) pentanoic acid] | 2.4 | 4 | 7.5 |  |  |  |
| N#Cc1cc(N)ccc1-c1cn(CCC[C@H](NC(=O)c2ccc(NCc3cnc4nc(N)nc(N)c4n3)cc2)C(=O)O)nn1 [XX47, (S)-5-(4-(4-Amino-2-cyanophenyl)-1H-1,2,3-triazol-1-yl)-2-(4-(((2,4-diaminopteridin-6-yl)methyl)amino)benzamido)pentanoic acid] | ~14 |  | ~100 |  |  | IC50 (SK-OV-3 cells): > 100 nM |
